From patent US5202130A, “Suppression of eczematous dermatitis by calcium transport inhibition” (The Johns Hopkins University, priority 1989, dated 1993)
Read-outs that look alike come from different tables or passages of the source.

Key:
[1] = tested on: suppressor cells (CD4 or CD8 T cell determinants); assay: Phenotype of the suppressor cells, spleen cells treated in vitro with mab and complement before transfer; type: in vivo, mice of the strain AB (H-2^k)
Method: The spleens from mice treated with lanthanum and control animals were removed and homogenized by gently pressing the tissue through a steel mesh. […] Thereafter the cells were washed 2 times and incubated for 20 minutes at 4° C. with a rat anti-mouse Ig mab (ATCC, Rockville, USA). The cells were washed 2 times and incubated for 30 minutes at 37° C. with normal rabbit serum, diluted 1:5 as a source of complement. The serum used was not toxic to the cells. Thereafter the cells were washed 2 times and 10^8 viable cells were injected intravenously into native syngeneic mice.
The non-parametric Mann-Whitney test was used.
To investigate the phenotype of this suppressor cell, spleen cells were harvested from mice which were previously sensitized with DNFB on LaCl3 pretreated skin. […]

[2] = tested on: contact allergic dermatitis; assay: Patch tests in seven patients with known contact allergic dermatitis, overall; type: in vivo, human (patients)
Method: Seven patients with known contact allergic dermatitis were recruited. One had hypersensitivity to nickel, four of these individuals had allergies against formaldehyde, and two had known allergies against chromium sulfate. Three patch test were applied in each individual. Patient number 1 was exposed to nickel sulfate (5% weight per volume) in hydrophilic ointment base USP. "Results" refers to the amount of erythema in the patch test sites at 48 hours, judged on a scale of 0-3+, where 3+ represents maximum erythema and inflammation.

DNFB contact sensitivity = assay: Transfer of hyporesponsiveness to DNFB by spleen cells of mice sensitized on LaCl3 treated skin; type: in vivo, mice of the strain AB (H-2^k)
From the text: (§1) Inbred mice of the strain AB (H-2^k) reared in the breeding colony of the Humboldt University Berlin were used. The mice were fed with water and standard pellets ad libitum. During all procedures (sensitization, challenge, measurement) the animals were anesthetized by an intraperitoneal injection of hexobarbital sodium salt. The number of animals per experimental group (n) is presented.
The mice were anesthesized in an area of 2.0×2.0 cm on their abdomen, abdominal skin was shaved with a blade, and a 20 microliters of a 0.5% solution of 2,4-dinitro-1-fluorobenzene (DNFB) (Serva, Heidelberg, F.R.G.) in acetone were applied to this site. This procedure was repeated one day later.
The challenge reaction was induced 5 days after the first sensitization by an application of 0.2% DNFB in acetone on the dorsal surfaces of both ears. The ear thickness was measured before and 24 hours after challenge using an engineers micrometer (Peacock, Japan).
(§2) 10 g LaCl3 ×7H2 O (Laborchemie Apolda, G.D.R.) was dissolved in 10 ml water and incorporated into unguentum alcoholum lanae aquosum. The previously shaved sensitization site on the abdominal skin of the mice was treated at the days numbered -1, 0, and +1 with this ointment. At the days 0 and +1, when contact sensitization with DNFB was performed, the ointment was applied on hour after sensitization, so that the penetration of the DNFB was not influenced by the ointment.
The spleens from mice treated with lanthanum and control animals were removed and homogenized by gently pressing the tissue through a steel mesh. The cell were suspended in RPMI 1640 medium (SIFIN, Berlin, G.D.R.) and were washed three times by centrifugation at 300 g for 10 minutes and resuspended. The treatment with monoclonal antibodies (mab) was performed by incubating the cells for 20 minutes with the L3T4 mab (clone GK 1.5, ATCC, Rockville, USA) or the anti-Lyt 2 mab (clone 53-6, ATCC, Rockville, USA) in a final dilution of 1:50. Thereafter the cells were washed 2 times and incubated for 20 minutes at 4° C. with a rat anti-mouse Ig mab (ATCC, Rockville, USA). […]

[3] = tested on: contact sensitization against DNCB; assay: Effect of topically administered La^3+ on sensitization against DNCB (ear swelling); type: in vivo, BALB/c mice
Method: Mice were treated with 50 microliters of 10% La^3+ chloride mixture (500 mg La^3+ chloride dissolved in 5 ml of 95% ethanol:glycerin [4:1 ratio]) applied for five consecutive days to the shaved back surface. Control animals were treated with the ethanol:glycerin vehicle only. On days 6 and 7, 25 microliters of 1.0% DNCB solution was applied to the shaved dorsal back surface. In mice pretreated with topical La^3+, DNCB was applied only to the shaved dorsal skin that had previously been treated with La^3+.

formaldehyde allergy = assay: Prevention of inflammatory reaction by topical La^3+, patch test with formaldehyde; type: in vivo, human (patient); conditions: 2% in hydrophilic ointment base, read at 72 hours
Method: In this example, a patient with known allergy against for formaldehyde was challenged with formaldehyde in the presence of lanthanum chloride. Lanthanum chloride was used at a 2% concentration (2 g/100 ml) in hydrophilic ointment base, USP, and the lanthanum was incorporated in the ointment at the time of exposure. The results of the patch test were read at 72 hours, and a photograph was taken. […] There was a very slight decrease of inflammation due to the presence of the ointment base itself. This slight decrease as a result of the use the emollient only is a well known phenomenon. […] The effect of the lanthanum is clearly much greater than that of the ointment base alone.

[4] = tested on: atopic dermatitis affecting the hands; assay: Treatment of atopic dermatitis affecting the hands with lanthanum chloride ointment; type: in vivo, human (patients); conditions: 5% ointment twice daily, 1-3 months; five patients
Method: Five patients with atopic dermatitis affecting the hands were treated with topical lanthanides. In this protocol individuals were dispensed a 5% lanthanum chloride ointment and were instructed to use a thin film on the hands twice daily immediately before work and immediately upon returning home from work. These individuals did so for a period of 1-3 months.

[5] = tested on: delayed hypersensitivity to ovalbumin; assay: Antigenic specificity of the suppressor cells (ovalbumin response of recipients); type: in vivo, mice of the strain AB (H-2^k)
Method: as §1, §2
The spleens from mice treated with lanthanum and control animals were removed and homogenized by gently pressing the tissue through a steel mesh. […]
Other groups of mice were sensitized by injection 50 microliters of ovalbumin (Serva, Heidelberg, F.R.G.) emulsified in 20 microliters of complete Freund's adjuvant (Difco laboratories, Detroit, U.S.A.) subcutaneously into the base of the tail. […] One day later foodpad swelling was measured. […]

[6] = type: in vivo, human (patients with atopic dermatitis)
Method: To date, eight patterns with endogenous eczema (atopic dermatitis) have been treated with topical lanthanides. In three individuals, atopic dermatitis affected the majority of the body surface. These three patients were treated with a single total body application of lanthanum chloride (5% in hydrophilic ointment base). Blood levels of lanthanum were measured by atomic absorption spectroscopy, over a period of 1/2 to 24 hours after the single application.

With `[Cl][La]([Cl])[Cl]` [lanthanum chloride, Lanthanum chloride] the “suppressor T cell population induced” value ([1]; DNFB-sensitized mice) was “a splenic CD4-CD8+ suppressor T cell population is induced”, the “% Suppression” value ([1]; spleen cells of LaCl3-treated, DNFB-sensitized donors, in vitro treatment as labelled (LaCl3 line = no treatment of cells), n 5) was 100% and the Ear thickness ([1]; ± SD, spleen cells of LaCl3-treated, DNFB-sensitized donors, in vitro treatment as labelled (LaCl3 line = no treatment of cells), no cell transfer 50 ± 4.2, n 5) was 28 ± 2.1 10^-2 mm. The “suppression of inflammation in all individuals” value ([2]; 5% lanthanum chloride at the time of exposure to known allergen) was “significant suppression of inflammation”, the “suppression of inflammation upon challenge” value ([2]; seven patients, known sensitizing agents) was “dose dependent effect in suppression of inflammation” and the “% Suppression” value (DNFB contact sensitivity; recipients of cells from donors DNFB-sensitized on LaCl3 treated skin, n 7) was 88%. For the same compound, the “transfer of hyporesponsiveness to DNFB by spleen cells” value (DNFB contact sensitivity; topical LaCl3 treatment of donors) was “transferred the hyporesponsiveness to DNFB to native syngeneic recipients”, the Ear thickness (DNFB contact sensitivity; ± SD, recipients of cells from donors DNFB-sensitized on LaCl3 treated skin, n 7, p 0.01, no cell transfer 46 ± 4.8) was 29 ± 2.4 10^-2 mm and the ear swelling ([3]; 24 h post-challenge, control 0.12±0.02 mm, p=0.028) was 0.05±0.02 mm. The “decrease in ear thickness 24 h post-challenge” value ([3]; FIG. 2, topical, vs. non-La-treated animals, p<0.01, challenge 25 μl of 0.25% DNCB) was 58%, the “difference in ear swelling between pretreated and control animals” value ([3]; statement follows negative control (challenged without prior sensitization) 0.03±0.01 mm) was “not statistically significant” and the “reduction in the contact hypersensitivity response” value ([3]; topical, 50 microliters of 10% La^3+ chloride, five days) was 58%. The “inflammation in patch test” value (formaldehyde allergy) was “almost totally abolished”, the “fissuring, oozing, and puritis” value [4] was “decrease” and the hand dermatitis [4] was “significant improvement”. The “footpad swelling response of the recipients to ovalbumin” value ([5]; transferred cells from mice sensitized with DNFB on LaCl3-treated skin) was “not affected”, the “Ear thickness (footpad swelling per footnote)” value ([5]; ± SD, DNFB sensitization on LaCl3 treated skin, recipients immunized with ovalbumin, n 8, NS, no cell transfer .68 ± .12) was “.68 ± .09 10^-2 mm” and the “penetration of the stratum corneum of the epidermis” value [6] was “does penetrate the stratum corneum of the epidermis”. The “time of peak blood level” value ([6]; human, in vivo, topical or ocular) was “approximately 4 hours”, the “Blood Concentration of La^+ 3” value ([6]; human, in vivo, topical or ocular, 0.5 h) was 4 ± 2.8 ng/mL and the “Blood Concentration of La^+ 3” value ([6]; human, in vivo, topical or ocular, 1 h) was 12.3 ± 2.3 ng/mL. The “Blood Concentration of La^+ 3” value ([6]; human, in vivo, topical or ocular, 2 h) was 12.16 ± 3 ng/mL, the “Blood Concentration of La^+ 3” value ([6]; human, in vivo, topical or ocular, 4 h) was 30.9 ± 2.2 ng/mL and the “Blood Concentration of La^+ 3” value ([6]; human, in vivo, topical or ocular, 12 h) was 14 ± 1.6 ng/mL. For the same compound, the “Blood Concentration of La^+ 3” value ([6]; human, in vivo, topical or ocular, 24 h) was 11 ± 3.6 ng/mL and the “blood level relative to levels known to produce toxicity in animals and humans” value ([6]; in vivo) was “well below those levels known to produce toxicity in animals and humans”.
